Test results reported in the NIST ThermoML archive (doi:10.1021/acs.jced.7b00945).
Numbers after ± are expanded uncertainties.

Experiments:
[1] = refractive index (Na D-line) (dimensionless); wn = mass fraction of the nth substance listed; details: 303 K, 100 kPa, Liquid, Standard Abbe refractometry
[2] = refractive index (Na D-line) (dimensionless); details: 303 K; 100 kPa; Liquid; Standard Abbe refractometry

Compound | refractive index ([1]; w2 = 0.3) | refractive index ([1]; w2 = 0.41) | refractive index ([1]; w2 = 0.5) | refractive index ([1]; w2 = 0.6) | refractive index ([1]; w2 = 0.7) | refractive index ([1]; w2 = 0.8) | refractive index ([1]; w1 = 1) | further results
OCCO [1,2-ethanediol] + O | 1.4008 ± 0.00038 | 1.38994 ± 0.00038 | 1.38106 ± 0.00038 | 1.37126 ± 0.00038 | 1.36074 ± 0.00038 | 1.35122 ± 0.00038 |  | refractive index ([1]; w2 = 0.1): 1.4196 ± 0.00038; refractive index ([1]; w2 = 0.2): 1.41005 ± 0.00038; refractive index ([1]; w2 = 0.89): 1.34168 ± 0.00037
OCCOCCO [diethylene glycol] + O | 1.41341 ± 0.00041 | 1.40107 ± 0.00042 | 1.38922 ± 0.00041 | 1.37817 ± 0.0004 | 1.36617 ± 0.0004 | 1.35413 ± 0.0004 |  | refractive index ([1]; w2 = 0.11): 1.43408 ± 0.00043; refractive index ([1]; w2 = 0.2): 1.42406 ± 0.00042; refractive index ([1]; w2 = 0.9): 1.34259 ± 0.00039
OCCOCCOCCO [triethylene glycol] + O | 1.41992 ± 0.00042 | 1.40643 ± 0.00043 | 1.39413 ± 0.00042 | 1.38175 ± 0.00042 | 1.36838 ± 0.00041 | 1.35616 ± 0.0004 |  | refractive index ([1]; w2 = 0.1): 1.44204 ± 0.00042; refractive index ([1]; w2 = 0.21): 1.43047 ± 0.00042; refractive index ([1]; w2 = 0.9): 1.34378 ± 0.0004
O [water] |  |  |  |  |  |  |  | refractive index [2]: 1.33179 ± 0.00032
O [water] + OCCO |  |  |  |  |  |  | 1.33179 ± 0.00032 | 
O [water] + OCCOCCO |  |  |  |  |  |  | 1.33179 ± 0.00032 | 
O [water] + OCCOCCOCCO |  |  |  |  |  |  | 1.33179 ± 0.00032 | 
O [water] + OCCOCCOCCOCCO |  |  |  |  |  |  | 1.33179 ± 0.00032 | 
